# Results as given in patent publication US20240034717A1, “NOVEL POTASSIUM CHANNEL INHIBITORS” (Saniona A/S, priority 2020, published 2024).
# “And” between values parts separate entries of the source, which are not always exact repeats. Identical values can stand only once.
# Experiments:
# physchem = conditions: for solubility at 16 h: 25 °C, pH 7.4, aqueous buffer, kinetic from dmso stock
# Procedure: 2.79 g of K2HPO4 and 0.54 g of KH2PO4 was dissolved in 390 mL of milliQ water. pH was adjusted to 7.4 using 1N HCl/1N NaOH and final volume was made up to 400 mL with milliQ water.
# In case of compounds not soluble/less quantity submission, 40/20/10Mm stocks were prepared and used for experiment.
# Assay Procedure: • 245 μL of 50 mM phosphate buffer then 5 μL each of test compound/standards (80 mM) in their respective positions was added to the 1.1 mL 96 well plate. • DMSO Controls was prepared by taking 245 μL of 100% DMSO then 5 μL each of test compound in their respective positions and added to the 1.1 mL 96 well plate • Plate was incubated with mixing at 1600 RPM for 16 hours at room temperature (˜23 MC). • After incubation, samples were filtered using Millipore plates. • Filtrates were analysed by HPLC-UV.
# Solubility is calculated using the following formula: […]
# [1] = biological target: erythrocyte KCa3.1 channels (Homo sapiens (Human), UniProt O15554); assay: Erythrocyte KCa3.1 assay; assay type: cell-based; conditions: human erythrocytes, A23187-activated KCa3.1; read-out: RBC K (in vitro) Human IC50 (μM) Potency category
# Procedure: Human blood was drawn from healthy human volunteers in a standard heparinized blood sampling vial (Vacutainer, Li/heparin, ED Bioscience, Plymouth, UK). The erythrocytes were packed by centrifugation, and the plasma and buffy coat were removed by aspiration. Erythrocytes were washed three times in the experimental salt solution and then stored at 0° C. until use. Blood samples from NMRI mice or from Wistar rats were treated similarly. The methodological principle is outlined in Macey et al. (1978) and further described in Strøbaek et al. (2013). Activation of the erythrocyte KCa3.1 channels were obtained by addition of the Ca^2+ ionophore A23187, which causes synchronized hyperpolarization, which is reported as a CCCP-mediated shift in the unbuffered extracellular pH of the erythrocyte suspension. Standard procedure: 3 mL unbuffered experimental salt solution (in mM: 2 KCl, 154 NaCl, 0.05 CaCl2) was heated to 37° C. with stirring. Packed erythrocytes were added (50 μL, final cytocrit 1.5%), and the extracellular pH (pHo) followed with a glass/calomel (pHG200-8/REF200, Radiometer, Denmark) electrode pair. CCCP (3 μL, final concentration 20 μM) was added followed by varying concentrations of test compounds (DMSO concentration constant). After pH stabilization at ˜7.2, A23187 (3 μL, final concentration 0.33 μM) was added to initiate the experiment. After the peak hyperpolarization was attained, the intracellular pH (pHi constant during the experiment) was found by haemolysing the erythrocytes via addition of 100 μL of Triton-X100.
# The erythrocyte membrane potential, Vm, was calculated according to: […]
# and the fractional remaining Ca^2+-activated K^+-conductance at the concentration C of blocker, fGK(C), was calculated from
# where the K^+ equilibrium potential EK=−107 mV, the Cl^− equilibrium potential ECl=−12 mV and the Vm(0) and Vm(C) are the peak hyperpolarizations in the control and in the presence of a concentration of C of blocker respectively.
# IC50 values for compounds were calculated from a plot of fGK(C) versus C by a fit to the Hill equation, using a custom program written in the IGOR-Pro software (WaveMetrics, Lake Oswego, OR, USA). All IC50-values are reported in μM.
# [2] = 50 mM potassium phosphate buffer pH 7.40, 16 hr at ~25° C., incubation concentration 1600 μM
SMILES,solubility at 16 h (physchem),IC50 [1] [µM],Measured Solubility in pH 7.4 phosphate buffer (mg/ml) (physchem; [2]),Measured Solubility in pH 7.4 phosphate buffer (μM) (physchem; [2]),"Measured Solubility in pH 7.4 phosphate buffer (μM) (physchem; 16 h, pH 7.4)"
COC(=O)N(CC(C)(C)N)C1(c2cccc(Br)c2)CC1 [Methyl (2-amino-2-methylpropyl)(1-(3-bromophenyl)cyclopropyl)carbamate],376 µg/mL and 800 µM,< 1,,,
COC(=O)N(C[C@H]1CCCN1)C1(c2ccc(F)c(OC(F)(F)F)c2)CC1 [Methyl (R)-(1-(4-fluoro-3-(trifluoromethoxy)phenyl)cyclopropyl)(pyrrolidin-2-ylmethyl)carbamate],677 µg/mL and 1600 µM,< 1,,,
CCOC(=O)N(C[C@@H]1CCCN1C)C1(c2ccc(F)c(C(F)(F)F)c2)CC1 [Ethyl (S)-(1-(4-fluoro-3-(trifluoromethyl)phenyl)cyclopropyl)((1-methylpyrrolidin-2-yl)methyl) carbamate],,< 0.3,0.5679,1500,
COC(=O)N(C[C@@H]1CCN1)C1(c2ccc(F)c(C(F)(F)F)c2)CC1 [Methyl (S)-(azetidin-2-ylmethyl)(1-(4-fluoro-3-(trifluoromethyl)phenyl)-cyclopropyl)carbamate],591 µg/mL and 1700 µM,< 1,,,
CC(C)OC(=O)N(C[C@@H]1CCCN1)C1(c2ccc(F)c(C(F)(F)F)c2)CC1 [Isopropyl (S)-(1-(4-fluoro-3-(trifluoromethyl)phenyl)cyclopropyl)(pyrrolidin-2-ylmethyl)carbamate],615 µg/mL and 1600 µM,< 0.3,,,
CCOC(=O)N(C[C@H]1CCCN1)C1(c2ccc(F)c(C(F)(F)F)c2)CC1 [Ethyl (R)-(1-(4-fluoro-3-(trifluoromethyl)phenyl)cyclopropyl)(pyrrolidin-2-ylmethyl)carbamate],616 µg/mL and 1500 µM,< 0.3,,,
"CC(C)(N)CNC1(c2ccc(F)c(C(F)(F)F)c2)CC1 [N1-(1-(4-fluoro-3-(trifluoromethyl)phenyl)cyclopropyl)-2-methylpropane-1,2-diamine]",482 µg/mL and 1700 µM,< 0.3,,,
COC(=O)N(CC(C)(C)NC(C)=O)C1(c2ccc(F)c(C(F)(F)F)c2)CC1 [Methyl (2-acetamido-2-methylpropyl)(1-(4-fluoro-3-(trifluoromethyl)phenyl)cyclopropyl)carbamate],596 µg/mL and 1500 µM,< 1,,,
"O=C1CSc2ccccc2N1Cc1cccc(C(F)(F)F)c1 [NS6180, 4-[[3-(Trifluoromethyl)-phenyl]methyl]-2H-1,4-benzothiazin-3(4H)-one, reference compound]",2.8 µM and 0.9 µg/mL,,,,2.8
COC(=O)N(C[C@H]1COCCN1C)C1(c2ccc(F)c(C(F)(F)F)c2)CC1 [Methyl (S)-(1-(4-fluoro-3-(trifluoromethyl)phenyl)cyclopropyl)((4-methylmorpholin-3-yl)methyl)carbamate],600 µg/mL and 1500 µM,< 0.3,,,
COC(=O)N(C[C@@]1(C)CCCN1)C1(c2ccc(F)c(C(F)(F)F)c2)CC1 [Methyl (R)-(1-(4-fluoro-3-(trifluoromethyl)phenyl)cyclopropyl)((2-methylpyrrolidin-2-yl)methyl)carbamate],585 µg/mL and 1400 µM,< 0.3,,,
CC(C)(N)CN(C1(c2ccc(F)c(C(F)(F)F)c2)CC1)S(C)(=O)=O [N-(2-amino-2-methylpropyl)-N-(1-(4-fluoro-3-(trifluoromethyl)phenyl)cyclopropyl)methanesulfonamide],565 µg/mL and 1500 µM,< 0.3,,,
CN1CCC1CN(CC(C)(C)O)C1(c2ccc(F)c(C(F)(F)F)c2)CC1 (stereo not drawn) [1-((1-(4-fluoro-3-(trifluoromethyl)phenyl)cyclopropyl)((1-methylazetidin-2-yl)methyl)amino)-2-methylpropan-2-ol],597 µg/mL and 1600 µM,< 1,,,
CCOC(=O)N(C[C@@H]1CCCN1)C1(c2ccc(F)c(C(F)(F)F)c2)CC1 [Ethyl (S)-(1-(4-fluoro-3-(trifluoromethyl)phenyl)cyclopropyl)(pyrrolidin-2-ylmethyl)carbamate],594 µg/mL and 1400 µM,< 0.3,,,
CC(C)(O)CN(CC1CCN1)C1(c2ccc(F)c(C(F)(F)F)c2)CC1 (stereo not drawn) [1-((azetidin-2-ylmethyl)(1-(4-fluoro-3-(trifluoromethyl)phenyl)cyclopropyl)amino)-2-methyl propan-2-ol],755 µg/mL and 1600 µM,< 0.3,,,
COC(=O)N(CCN(C)C)C1(c2ccc(F)c(C(F)(F)F)c2)CC1 [Methyl N-(2-(dimethylamino)ethyl)-N-(1-(4-fluoro-3-(trifluoromethyl)phenyl)cyclopropyl) carbamate],,< 1,0.5409,1600,
COC(=O)N1CC(N(C(=O)OC)C2(c3ccc(F)c(C(F)(F)F)c3)CC2)C1 [Methyl 3-((1-(4-fluoro-3-(trifluoromethyl)phenyl)cyclopropyl) (methoxycarbonyl)amino)azetidine-1-carboxylate],27.9 µg/mL and 100 µM,< 0.3,,,
CCOC(=O)N(CC(C)(C)N)C1(c2ccc(F)c(C(F)(F)F)c2)CC1 [Ethyl (2-amino-2-methylpropyl)(1-(4-fluoro-3-(trifluoromethyl)phenyl)cyclopropyl)carbamate],607 µg/mL and 1500 µM,< 0.3,,,
CS(=O)(=O)N(C[C@@H]1CCCN1)C1(c2ccc(F)c(C(F)(F)F)c2)CC1 [(S)-N-(1-(4-fluoro-3-(trifluoromethyl)phenyl)cyclopropyl)-N-(pyrrolidin-2-ylmethyl) methanesulfonamide],,< 1,0.3218,800,
O=C(OC1CC1)N(C[C@@H]1CCCN1)C1(c2ccc(F)c(C(F)(F)F)c2)CC1 [Cyclopropyl (S)-(1-(4-fluoro-3-(trifluoromethyl)phenyl)cyclopropyl)(pyrrolidin-2-ylmethyl)carbamate],601 µg/mL and 1600 µM,< 0.3,,,
"CC(C)(N)CN(CC1CC1)C1(c2ccc(F)c(C(F)(F)F)c2)CC1 [N1-(cyclopropylmethyl)-N1-(1-(4-fluoro-3-(trifluoromethyl)phenyl)cyclopropyl)-2-methyl propane-1,2-diamine]",511 µg/mL and 1500 µM,< 0.3,,,
CN1CCC[C@H]1CN(C1(c2ccc(F)c(C(F)(F)F)c2)CC1)S(C)(=O)=O [(S)-N-(1-(4-fluoro-3-(trifluoromethyl)phenyl)cyclopropyl)-N-((1-methylpyrrolidin-2-yl)methyl)methanesulfonamide],621 µg/mL and 1600 µM,< 0.3,,,
COC(=O)N(C[C@]1(C)CCCN1)C1(c2ccc(F)c(C(F)(F)F)c2)CC1 [Methyl (S)-(1-(4-fluoro-3-(trifluoromethyl)phenyl)cyclopropyl)((2-methylpyrrolidin-2-yl)methyl)carbamate],575 µg/mL and 1400 µM,< 0.3,,,
"N[C@H]1CCC[C@H]1NC1(c2ccc(F)c(C(F)(F)F)c2)CC1 [(1R,2S)-N1-(1-(4-fluoro-3-(trifluoromethyl)phenyl)cyclopropyl)-cyclopentane-1,2-diamine]",480 µg/mL and 1400 µM,< 0.3,,,
